Data from PMC12214830, “The human RIF1-Long isoform interacts with BRCA1 to promote recombinational fork repair under DNA replication stress” (Nature Communications, 2025).

Key:
ssDNA = test: native IdU immunofluorescence (ssDNA), RPE-1 cells; assay type: cell-based, human; conditions: HU 4 mM 24 h
Method: For detection of iododeoxyuridine (IdU) by immunofluorescence, cells were grown in the presence of 10 µM IdU for 72 h (with Morpholinos added at 24 h and HU added at 48 h). Cells were then permeabilized with 0.5% TritonX-100 in PBS for 7 min on ice, fixed with 4% w/v formaldehyde solution for 15 min at RT, and treated again with 0.5% TritonX-100 in PBS for 10 min on ice. Coverslips were immunostained as described above.

RIF1-L phosphoS2265 = test: Western blot, RIF1-L phosphoS2265, HeLa cells; assay type: cell-based, human; conditions: HU 4 mM 24 h
Method: Cells were harvested in 10 mM Tris-HCl pH 7.5, 2 mM EDTA buffer and lysed with laemmli sample buffer (Bio-Rad, 1610737, supplemented with 5% β-mercaptoethanol). Samples were heated at 95 °C for 15 min and centrifuged at 13,000 × g for 15 min. Protein concentrations were measured by RC DC Protein Assay (Bio-Rad, 5000122). Equal amounts of total proteins for each sample were separated in Mini-PROTEAN TGX Stain-free Precast Gels (Bio-Rad) by SDS-PAGE. Gels were at this stage imaged with the ChemiDoc Touch Imaging System (Bio-Rad) using the ‘Protein gel – Stain free’ module to obtain stain-free gel images. Proteins on gel were transferred to PVDF membranes (Bio-Rad, 1704274) using the Trans-Blot Turbo Blotting System (Bio-Rad). Membranes were blocked in 3% BSA in TBS-T (1x TBS supplemented with 0.1% Tween-20) at RT for 1 h, followed by incubation with primary antibodies overnight at 4 °C. Membranes were washed with TBS-T and then incubated with secondary antibodies for 1 h at RT. The blots were developed with Clarity ECL reagents (Bio-Rad, 1705060) and imaged with the ChemiDoc Touch Imaging System (Bio-Rad). Primary antibodies used for western blotting include anti-RIF1 (Bethyl Laboratories, A300-568A. 1:5000); anti-RIF1-L-Phospho-S2265 (amsbio, custom. 1:5000); anti-BRCA1 (D-9) (Santa Cruz Biotechnology, sc-6954. 1:1000); anti-BARD1 (Bethyl Laboratories, A300-263A. 1:1000); anti-53BP1 (Novus Biologicals, NB100-94. 1:5000); anti-PP1α (G4) (Santa Cruz Biotechnology, sc-271762. 1:1000); anti-Tubulin (YOL1/34) (Santa Cruz Biotechnology, sc-53030. 1:4000); anti-FLAG (M2) (Sigma-Aldrich, F1804. 1:2000); anti-GFP (Chromotek, 3h9. 1:2000); anti-RFP (Chromotek, 5f8. 1:2000). Uncropped and unprocessed Western Blot images are provided in the Source Data file.

Compound: NC(=O)NO [HU, hydroxyurea]
- native IdU staining (ssDNA): both increased upon HU treatment
- RIF1-L phosphoS2265 western blot signal (RIF1-L phosphoS2265): reduced RIF1-L phosphoS^2265 signal
